Test results reported in PubChem BioAssay (NCI).
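GI50 marks 50% less growth. Definition used: TGI = concentration required for complete inhibition of growth.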

How the values were obtained:
Assay in all cases: NCI anticancer screen, dose series, 384-well format
[1] = tested on: RXF 393 renal
[2] = tested on: 786-0 renal
[3] = tested on: NCI-H522 lung
[4] = tested on: OVCAR-3 ovarian
[5] = tested on: NCI/ADR-RES ovarian
[6] = tested on: SR leukemia
[7] = tested on: SNB-19 CNS
[8] = tested on: OVCAR-4 ovarian
[9] = tested on: SK-MEL-28 melanoma
[10] = tested on: KM12 colon
[11] = tested on: HOP-92 NSCLC
[12] = tested on: T-47D breast
[13] = tested on: RPMI-8226 leukemia
[14] = tested on: HCC-2998 colon
[15] = tested on: HCT-15 colon
[16] = tested on: SW-620 colon
[17] = tested on: HL-60(TB) leukemia
[18] = tested on: UACC-62 melanoma
[19] = tested on: M14 melanoma
[20] = tested on: SK-OV-3 ovarian
[21] = tested on: UACC-257 melanoma
[22] = tested on: OVCAR-5 ovarian
[23] = tested on: TK-10 renal
[24] = tested on: U251 glioblastoma
[25] = tested on: PC-3 prostate
[26] = tested on: NCI-H226 lung
[27] = tested on: COLO 205 colon
[28] = tested on: SF-268 CNS
[29] = tested on: MDA-MB-231 breast
[30] = tested on: HCT-116 colon
[31] = tested on: HOP-62 NSCLC
[32] = tested on: SK-MEL-5 melanoma
[33] = tested on: DU-145 prostate
[34] = tested on: LOX IMVI melanoma
[35] = tested on: ACHN renal
[36] = tested on: MCF7 breast
[37] = tested on: MALME-3M melanoma
[38] = tested on: SF-539 CNS
[39] = tested on: BT-549 breast
[40] = tested on: NCI-H23 lung
[41] = tested on: SNB-75 CNS
[42] = tested on: IGROV1 ovarian
[43] = tested on: UO-31 renal
[44] = tested on: A498 renal
[45] = tested on: HT29 colon
[46] = tested on: A549 NSCLC
[47] = tested on: HS 578T breast
[48] = tested on: CAKI-1 renal
[49] = tested on: NCI-H322M lung
[50] = tested on: SF-295 CNS
[51] = tested on: SN12C renal
[52] = tested on: MDA-MB-468 breast
[53] = tested on: MDA-MB-435 melanoma
[54] = tested on: OVCAR-8 ovarian
[55] = tested on: EKVX NSCLC
[56] = tested on: NCI-H460 NSCLC
[57] = tested on: MOLT-4 leukemia

C=C1C[C@@H]2[C@H](CC[C@]3(C)C(=O)CC[C@@H]23)[C@@]2(C)C=CC(=O)C=C12
GI50 [1]: 5.67 µM
TGI [1]: 17.4 µM
GI50 [2]: 19.8 µM
TGI [2]: 45.8 µM
GI50 [3]: 12.2 µM
TGI [3]: 24.8 µM
GI50 [4]: 14.8 µM
TGI [4]: 35.9 µM
GI50 [5]: 17.9 µM
TGI [5]: 35.3 µM
GI50 [6]: 18 µM
TGI [6]: 32.1 µM
GI50 [7]: 46.5 µM
TGI [7]: > 100 µM
GI50 [8]: 20.9 µM
TGI [8]: 40.2 µM
GI50 [9]: > 100 µM
TGI [9]: > 100 µM
GI50 [10]: 28 µM
TGI [10]: 94.9 µM
GI50 [11]: > 100 µM
TGI [11]: > 100 µM
GI50 [12]: 27.6 µM
TGI [12]: 98.6 µM
GI50 [13]: 17.8 µM
TGI [13]: 32.2 µM
GI50 [14]: 15.8 µM
TGI [14]: 30 µM
GI50 [15]: 19 µM
TGI [15]: > 100 µM
GI50 [16]: 33.9 µM
TGI [16]: > 100 µM
GI50 [17]: 12.8 µM
TGI [17]: 25.6 µM
GI50 [18]: 21.9 µM
TGI [18]: > 100 µM
GI50 [19]: 29.3 µM
TGI [19]: > 100 µM
GI50 [20]: 82.2 µM
TGI [20]: > 100 µM
GI50 [21]: 17.3 µM
TGI [21]: 53.1 µM
GI50 [22]: > 100 µM
TGI [22]: > 100 µM
GI50 [23]: > 100 µM
TGI [23]: > 100 µM
GI50 [24]: 21.4 µM
TGI [24]: 44.4 µM
GI50 [25]: 30.3 µM
TGI [25]: > 100 µM
GI50 [26]: 20.5 µM
TGI [26]: 39.2 µM
GI50 [27]: 20.7 µM
TGI [27]: 37.4 µM
GI50 [28]: 27.4 µM
TGI [28]: 74.9 µM
GI50 [29]: 28.8 µM
TGI [29]: 85.1 µM
GI50 [30]: 27.5 µM
TGI [30]: > 100 µM
GI50 [31]: 23.1 µM
TGI [31]: 56.2 µM
GI50 [32]: 12.9 µM
TGI [32]: 29.1 µM
GI50 [33]: 35.2 µM
TGI [33]: > 100 µM
GI50 [34]: 12.5 µM
TGI [34]: 27.1 µM
GI50 [35]: 22.3 µM
TGI [35]: 42.6 µM
GI50 [36]: 18.6 µM
TGI [36]: 82.4 µM
GI50 [37]: 12.2 µM
TGI [37]: 25.9 µM
GI50 [38]: 19.6 µM
TGI [38]: 38.9 µM
GI50 [39]: 14.9 µM
TGI [39]: 31.1 µM
GI50 [40]: 17.9 µM
TGI [40]: 36.2 µM
GI50 [41]: 25.9 µM
TGI [41]: 74 µM
GI50 [42]: 32.6 µM
TGI [42]: > 100 µM
GI50 [43]: 21.1 µM
TGI [43]: 39.5 µM
GI50 [44]: 23.3 µM
TGI [44]: 47.8 µM
GI50 [45]: 23 µM
TGI [45]: 99.1 µM
GI50 [46]: 30.1 µM
TGI [46]: > 100 µM
GI50 [47]: 12.3 µM
TGI [47]: 27.2 µM
GI50 [48]: 27 µM
TGI [48]: 70.7 µM
GI50 [49]: 25.1 µM
TGI [49]: 74.6 µM
GI50 [50]: 57.1 µM
TGI [50]: > 100 µM
GI50 [51]: 32.4 µM
TGI [51]: 98.2 µM
GI50 [52]: 6.15 µM
TGI [52]: 25.8 µM
GI50 [53]: 82.9 µM
TGI [53]: > 100 µM
GI50 [54]: 20.3 µM
TGI [54]: 47.2 µM
GI50 [55]: 28.4 µM
TGI [55]: 75.7 µM
GI50 [56]: 21.1 µM
TGI [56]: 40.6 µM
GI50 [57]: 13.7 µM
TGI [57]: 27 µM
